Reference: patent US11478471B2, “Methods and compositions for treating diabetes, metabolic syndrome and other conditions” (priority 2005, dated 2022)
≈ marks a conversion by molar mass, not a printed value.

How the values were obtained:
[1] = test system: cholesterol levels; assay: Cholesterol levels in rats after oral dosing; format: in vivo, Sprague Dawley rats; details: for Cholesterol Levels (mean ± SEM): single oral 200 mg/kg
Description: The rats were maintained as described above; the drugs were suspended in olive oil, and each rat was dosed once via gastric tube to achieve a dose of 200 mg/kg. All of the rats were dosed at a specific time so that all terminations occurred between 6 and 7 pm. […] Following sacrifice, plasma was prepared, and the concentration of corticosterone in the plasma was determined by ELISA. In the same plasma samples, total cholesterol levels were also determined.

[2] = test system: Cryptococcus neoformans; assay: Antifungal MIC; format: cell-based
[3] = Toxicokinetics in the 28 day dog study of DIO-902 (with racemic ketoconazole group a); details: beagle, plasma, dogs; for concentration at 0 h / concentration at 1 h / concentration at 2 h / concentration at 4 h / concentration at 8 h / concentration at 12 h: Drug concentration in plasma; for AUC(0-t): AUC(0-12); for Tmax: Tmax Range;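 on all read-outs here: beagle dogs dosed orally once daily within a 28-day GLP study, 3 animals per sex per group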
[4] = 28 day GLP toxicity study in dogs; details: dogs, 40 mg/kg/day, led to cessation of dosing after 9 days
[5] = test system: Candida parapsilosis; assay: Antifungal MIC; format: cell-based; details: Lodderomyces parapsilosis
[6] = test system: Candida albicans; assay: Antifungal MIC; format: cell-based
[7] = test system: Saccharomyces cerevisiae; assay: Antifungal MIC; format: cell-based; details: DSM01333, DSM strain 01333, 48 h
[8] = test system: testosterone levels; assay: Testosterone levels in rats after oral dosing; format: in vivo, Sprague Dawley rats; details: for Testosterone levels (mean ± SEM): 4 h after gavage
Source text: There was a single control group (dosed with vehicle).
The means of the vehicle treated groups are used as the time zero control point.

[9] = test system: Candida glabrata; assay: Antifungal MIC; format: cell-based; details: Nakaseomyces glabratus
[10] = female, oral, 20 mg/kg, group a: 20 mg/kg oral (after 40 mg/kg days 1-9, pause), day 28, F
[11] = female, po, 20 mg/kg, group a: 20 mg/kg oral (after 40 mg/kg days 1-9, pause), day 28, F
[12] = female, po, 40 mg/kg, group a: 40 mg/kg oral, day 1, F
[13] = male, oral, 20 mg/kg, group a: 20 mg/kg oral (after 40 mg/kg days 1-9, pause), day 28, M
[14] = male, po, 20 mg/kg, group a: 20 mg/kg oral (after 40 mg/kg days 1-9, pause), day 28, M
[15] = male, po, 40 mg/kg, group a: 40 mg/kg oral, day 1, M

Question: Which results are given for `CC(=O)N1CCN(c2ccc(OCC3COC(Cn4ccnc4)(c4ccc(Cl)cc4Cl)O3)cc2)CC1` (racemic) [Racemic ketoconazole, 1-acetyl-4-[4-[[2-(2,4-dichlorophenyl)-2-[(1H-imidazol-1-yl)-methyl]-1,3-dioxolan-4-yl]methoxy]phenyl]piperazine]?
Answer: efficacy at lowering cholesterol ([1]; 200 mg/kg oral, up to 24 hours): intermediate between the two enantiomers; Cholesterol Levels (mean ± SEM) ([1]; 4 h): 81.2 ± 3.9 mg/dL; Cholesterol Levels (mean ± SEM) ([1]; 8 h): 73.5 ± 2.3 mg/dL; Cholesterol Levels (mean ± SEM) ([1]; 12 h): 69.6 ± 2.3 mg/dL; Cholesterol Levels (mean ± SEM) ([1]; 16 h): 69.6 ± 3.1 mg/dL; MIC ([2]; DSM11959, DSM strain 11959, 48 h): 0.06 µg/mL (≈ 0.113 µM); MIC ([2]; DSM11960, DSM strain 11960, 48 h): 0.125 µg/mL (≈ 0.235 µM); concentration at 0 h [3, 10]: < 250 ng/mL; concentration at 1 h [3, 10]: < 250 ng/mL; concentration at 2 h [3, 10]: 270 ng/mL; concentration at 4 h [3, 10]: 350 ng/mL; concentration at 8 h [3, 10]: 310 ng/mL; concentration at 12 h [3, 10]: < 250 ng/mL; AUC(0-t) ([3]; female, po, 20 mg/kg, group a: 20 mg/kg oral (after 40 mg/kg days 1-9, pause), day 28, F, n = 1): 4700 ng·h/mL; Cmax [3, 11]: 550 ng/mL; Tmax [3, 11]: 2 to 8 h; AUC(0-t) [3, 12]: 185000 ng·h/mL; Cmax [3, 12]: 21300 ng/mL; concentration at 0 h [3, 12]: < 250 ng/mL; concentration at 1 h [3, 12]: 4290 ng/mL; concentration at 2 h [3, 12]: 12300 ng/mL; concentration at 4 h [3, 12]: 20100 ng/mL; concentration at 8 h [3, 12]: 18300 ng/mL; concentration at 12 h [3, 12]: 14800 ng/mL; Tmax [3, 12]: 4 to 8 h; concentration at 0 h [3, 13]: < 250 ng/mL; concentration at 1 h [3, 13]: < 250 ng/mL; concentration at 2 h [3, 13]: 280 ng/mL; concentration at 4 h [3, 13]: < 250 ng/mL; concentration at 8 h [3, 13]: < 250 ng/mL; concentration at 12 h [3, 13]: < 250 ng/mL; AUC(0-t) ([3]; male, po, 20 mg/kg, group a: 20 mg/kg oral (after 40 mg/kg days 1-9, pause), day 28, M, n = 1): 3420 ng·h/mL; Cmax [3, 14]: 510 ng/mL; Tmax [3, 14]: 1 to 8 h; AUC(0-t) [3, 15]: 143000 ng·h/mL; Cmax [3, 15]: 16600 ng/mL; concentration at 0 h [3, 15]: < 250 ng/mL; concentration at 1 h [3, 15]: 5600 ng/mL; concentration at 2 h [3, 15]: 8870 ng/mL; concentration at 4 h [3, 15]: 10800 ng/mL; concentration at 8 h [3, 15]: 16600 ng/mL; concentration at 12 h [3, 15]: 12800 ng/mL; Tmax [3, 15]: 8 h; body weight losses [4]: up to 17.3%; MIC ([5]; DSM05784, 48 h): 0.03 µg/mL (≈ 0.0565 µM); MIC ([5]; DSM11224, 48 h): < 0.015 µg/mL; MIC ([6]; 48 h): < 0.015 µg/mL; MIC ([6]; DSM11225, 48 h): < 0.015 µg/mL; MIC ([6]; DSM11943, 48 h): < 0.015 µg/mL; MIC ([6]; DSM11944, 48 h): < 0.015 µg/mL; MIC ([6]; DSM11945, 48 h): 0.03 µg/mL (≈ 0.0565 µM); MIC ([6]; DSM11948, 48 h): < 0.015 µg/mL; MIC ([6]; DSM11949, 48 h): 0.125 µg/mL (≈ 0.235 µM); MIC [7]: 0.25 µg/mL (≈ 0.47 µM); Testosterone levels (mean ± SEM) ([8]; single oral 50 mg/kg): 2.7 ± 0.6 nmol/L; Testosterone levels (mean ± SEM) ([8]; single oral 100 mg/kg): 1.7 ± 0.5 nmol/L; Testosterone levels (mean ± SEM), time course ([8]; single oral 200 mg/kg, 4 h): 1.6 ± 0.6 nmol/L; Testosterone levels (mean ± SEM) ([8]; single oral 200 mg/kg): 0.4 ± 0.2 nmol/L; Testosterone levels (mean ± SEM), time course ([8]; single oral 200 mg/kg, 8 h): 8.0 ± 1.0 nmol/L; Testosterone levels (mean ± SEM), time course ([8]; single oral 200 mg/kg, 12 h): 4.6 ± 0.6 nmol/L; Testosterone levels (mean ± SEM), time course ([8]; single oral 200 mg/kg, 16 h): 3.8 ± 0.5 nmol/L; Testosterone levels (mean ± SEM), time course ([8]; single oral 200 mg/kg, 20 h): 5.6 ± 0.8 nmol/L; Testosterone levels (mean ± SEM), time course ([8]; single oral 200 mg/kg, 24 h): 5.9 ± 0.5 nmol/L; Testosterone levels (mean ± SEM) ([8]; single oral 400 mg/kg): 0.4 ± 0.2 nmol/L; Testosterone levels (mean ± SEM) ([8]; single oral 600 mg/kg): 0.8 ± 0.1 nmol/L; MIC ([9]; DSM11226, 48 h): 0.5 µg/mL (≈ 0.941 µM); MIC ([9]; DSM11950, 48 h): 0.25 µg/mL (≈ 0.47 µM)
